Assay [1] can be described thus: body weight of diet-induced obese (DIO) mice dosed daily for nine days (Example 7). The format is in vivo. The settings on record: Day 9; for body weight reduction: 3 nmol/kg daily; for body weight loss: 9 nmol/kg daily. As to the method: (§1) Mice were administered a vehicle control or a dose of a peptide daily for nine days. The peptides tested in this study included a peptide of SEQ ID NO: 12, a peptide of SEQ ID NO: 17, a peptide of SEQ ID NO: 18, and a peptide of SEQ ID NO: 19. Doses of each peptide were varied—each of the peptides of SEQ ID NO: 12, 17, and 19 was administered at a dose of either 3 nmol/kg or 9 nmol/kg, while the peptide of SEQ ID NO: 18 was administered at a dose of 1 nmol/kg, 3 nmol/kg, or 9 nmol/kg. Data are expressed as mean±SEM.

The nature of assay [2]: ambient glucose levels of DIO mice dosed daily for nine days (Example 7). The format is in vivo. The note with it: for decrease in ambient glucose vs. vehicle: by Day 4. As to the method:
as §1
In addition to cumulative body weight change, ambient glucose levels of the DIO mice were measured.

Another assay deals with T1, glucagon receptor (Homo sapiens, UniProt P47871).
T1 construct: expressed in transfected cells; host or cells: HEK293
T1 sequence (P47871 26-477): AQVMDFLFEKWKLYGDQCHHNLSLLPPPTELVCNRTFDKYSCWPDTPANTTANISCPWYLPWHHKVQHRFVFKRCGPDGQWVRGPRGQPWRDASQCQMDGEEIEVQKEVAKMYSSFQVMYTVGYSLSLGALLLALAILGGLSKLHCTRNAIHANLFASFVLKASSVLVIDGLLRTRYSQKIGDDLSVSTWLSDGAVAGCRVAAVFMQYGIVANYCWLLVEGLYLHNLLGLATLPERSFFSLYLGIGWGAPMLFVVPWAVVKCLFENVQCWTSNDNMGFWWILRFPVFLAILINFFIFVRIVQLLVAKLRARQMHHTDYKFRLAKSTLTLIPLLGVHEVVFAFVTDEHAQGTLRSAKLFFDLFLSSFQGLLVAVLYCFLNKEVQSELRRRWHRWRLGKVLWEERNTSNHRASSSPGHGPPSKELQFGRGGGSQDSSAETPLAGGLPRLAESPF
The assay can be described thus: firefly luciferase-based cAMP reporter assay, HEK293 cells co-transfected with glucagon receptor (Example 3). Type of assay: cell-based. The settings on record: procedure of Example 3. The protocol:
(§2) The ability of each peptide to induce cAMP was measured in a firefly luciferase-based reporter assay.
(§3) At the end of the incubation, 100 μL of LucLite luminescence substrate reagent (Perkin Elmer, Wellesley, Mass.) were added to each well.

In the next assay the target is T2, GIP receptor (Homo sapiens, UniProt P48546).
T2 construct: expressed in transfected cells; host or cells: HEK293
T2 sequence (P48546 22-466): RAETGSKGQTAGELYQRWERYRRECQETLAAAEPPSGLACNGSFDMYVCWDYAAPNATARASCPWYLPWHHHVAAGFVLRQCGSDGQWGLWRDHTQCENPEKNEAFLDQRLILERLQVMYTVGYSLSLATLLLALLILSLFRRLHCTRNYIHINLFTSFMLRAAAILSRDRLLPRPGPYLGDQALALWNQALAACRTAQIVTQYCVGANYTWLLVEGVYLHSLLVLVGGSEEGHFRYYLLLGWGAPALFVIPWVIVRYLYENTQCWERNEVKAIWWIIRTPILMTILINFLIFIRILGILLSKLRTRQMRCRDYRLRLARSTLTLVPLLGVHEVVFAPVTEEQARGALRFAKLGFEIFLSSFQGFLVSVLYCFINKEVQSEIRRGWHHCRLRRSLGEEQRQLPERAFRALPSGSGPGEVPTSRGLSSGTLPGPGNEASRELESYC
The assay can be described thus: firefly luciferase-based cAMP reporter assay, HEK293 cells, GIP receptor (Example 3). The note with it: procedure of Example 3. Type of assay: cell-based. The protocol: It is understood that a lower EC50 indicates higher activity or potency at the receptor.
as §2, §3
In some instances, the in vitro agonist activity at the GIP receptor was also tested.

The target in another assay is human GLP-1R (Homo sapiens, UniProt P43220). Briefly: firefly luciferase-based cAMP reporter assay, HEK293 cells co-transfected with GLP-1 receptor (Example 3). Type of assay: cell-based. Set-up: expressed in transfected cells; host or cells: HEK293. The settings on record: procedure of Example 3. As to the method: as §2, §3
human GLP-1R, sequence (P43220 24-463): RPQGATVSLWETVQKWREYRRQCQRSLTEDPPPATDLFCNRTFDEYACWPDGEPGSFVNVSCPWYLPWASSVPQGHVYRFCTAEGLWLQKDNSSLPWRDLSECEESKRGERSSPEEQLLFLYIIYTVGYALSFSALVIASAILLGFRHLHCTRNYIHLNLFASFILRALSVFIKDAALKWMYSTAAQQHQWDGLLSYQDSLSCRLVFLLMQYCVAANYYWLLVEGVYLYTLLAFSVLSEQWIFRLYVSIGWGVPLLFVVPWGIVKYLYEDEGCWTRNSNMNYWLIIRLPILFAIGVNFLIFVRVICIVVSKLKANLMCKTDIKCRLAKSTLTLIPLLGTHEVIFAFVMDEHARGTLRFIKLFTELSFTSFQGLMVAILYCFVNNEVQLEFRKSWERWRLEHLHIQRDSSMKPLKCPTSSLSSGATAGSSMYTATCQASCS

pEC50: −log10 of the molar value. *1 amine or outer side, *2 acyl side, *3 side chain or, on linkers, in order; H or OH if unused. Where a SMILES comes first, the peptide text is derived from it. Where no end group is shown, it is not given here. Side-chain parts run from the residue outwards. [ ]: non-standard residue; d: D form. The star is where a group is joined. γGlu = O=C(O)[C@H](CCC(=O)[*:2])N[*:1]; Palmitoyl = CCCCCCCCCCCCCCCC(=O)*; Aib = CC(C)(N)C(=O)O

Regarding “SEQ ID NO: 19: peptide of SEQ ID NO: 19 tested in DIO mice; sequence only in the sequence listing (H[dS]QGTFTSDK([γGlu-Palmitoyl])SKYLDERAAQDFVQWLLDT-NH2; N-terminus assumed; SMILES CCCCCCCCCCCCCCCC(=O)N[C@@H](CCC(=O)NCCCC[C@H](NC(=O)[C@H](CC(=O)O)NC(=O)[C@H](CO)NC(=O)[C@@H](NC(=O)[C@H](Cc1ccccc1)NC(=O)[C@@H](NC(=O)CNC(=O)[C@H](CCC(N)=O)NC(=O)[C@@H](CO)NC(=O)[C@@H](N)Cc1c[nH]cn1)[C@@H](C)O)[C@@H](C)O)C(=O)N[C@@H](CO)C(=O)N[C@@H](CCCCN)C(=O)N[C@@H](Cc1ccc(O)cc1)C(=O)N[C@@H](CC(C)C)C(=O)N[C@@H](CC(=O)O)C(=O)N[C@@H](CCC(=O)O)C(=O)N[C@@H](CCCNC(=N)N)C(=O)N[C@@H](C)C(=O)N[C@@H](C)C(=O)N[C@@H](CCC(N)=O)C(=O)N[C@@H](CC(=O)O)C(=O)N[C@@H](Cc1ccccc1)C(=O)N[C@H](C(=O)N[C@@H](CCC(N)=O)C(=O)N[C@@H](Cc1c[nH]c2ccccc12)C(=O)N[C@@H](CC(C)C)C(=O)N[C@@H](CC(C)C)C(=O)N[C@@H](CC(=O)O)C(=O)N[C@H](C(N)=O)[C@@H](C)O)C(C)C)C(=O)O)”, in assay [1], the body weight reduction is on record as ~8.1%. The body weight loss in assay [1] is ~31.5%. Moreover, the “decrease in glucose levels compared to vehicle control mice” value was ~40% in assay [2] (9 nmol/kg daily, Day 4); ~39% in assay [2] (9 nmol/kg daily, Day 7); ~26% in assay [2] (9 nmol/kg daily, Day 9).
Turning to “SEQ ID NO: 18: peptide of SEQ ID NO: 18 tested in DIO mice; sequence only in the sequence listing (HXQGTFTSDKSKYLDERAAQDFVQWLMDT; not fully specified; Xaa is AIB; Acylated with a C16 fatty acyl group via gamma- Glu-gamma-Glu spacer; C-terminal amidation)”, in assay [1], the body weight reduction is ~12.3% and the body weight loss was ~26.8%. Also, in assay [2] (3 nmol/kg daily), the “decrease in ambient glucose vs. vehicle” value is listed as −29%. For the same molecule, the “decrease in ambient glucose vs. vehicle” value in assay [2] (9 nmol/kg daily) is recorded as −29%.
Take `CCCCCCCCCCCCCCCC(=O)N[C@@H](CCC(=O)N[C@@H](CCC(=O)NCCCC[C@H](NC(=O)[C@H](CC(=O)O)NC(=O)[C@H](CO)NC(=O)[C@@H](NC(=O)[C@H](Cc1ccccc1)NC(=O)[C@@H](NC(=O)CNC(=O)[C@H](CCC(N)=O)NC(=O)C(C)(C)NC(=O)[C@@H](N)Cc1c[nH]cn1)[C@@H](C)O)[C@@H](C)O)C(=O)N[C@@H](CO)C(=O)N[C@@H](CCCCN)C(=O)N[C@@H](Cc1ccc(O)cc1)C(=O)N[C@@H](CC(C)C)C(=O)N[C@@H](CC(=O)O)C(=O)NC(C)(C)C(=O)N[C@@H](CCCNC(=N)N)C(=O)N[C@@H](C)C(=O)N[C@@H](C)C(=O)N[C@@H](CCC(N)=O)C(=O)N[C@@H](CC(=O)O)C(=O)N[C@@H](Cc1ccccc1)C(=O)N[C@H](C(=O)N[C@@H](CCC(N)=O)C(=O)N[C@@H](Cc1c[nH]c2ccccc12)C(=O)N[C@@H](CC(C)C)C(=O)N[C@@H](CC(C)C)C(=O)N[C@@H](CC(=O)O)C(=O)N[C@H](C(=O)N[C@@H](CCCCN)C(=O)N[C@@H](CCC(N)=O)C(=O)O)[C@@H](C)O)C(C)C)C(=O)O)C(=O)O` [SEQ ID NO: 16] (H-H[Aib]QGTFTSDK([γGlu-γGlu-Palmitoyl])SKYLD[Aib]RAAQDFVQWLLDTKQ-OH; N-terminus assumed): the pEC50 at glucagon receptor was 10.82; at human GLP-1R, 10.72. On GIP receptor, the EC50 came out at 1.04 nM.
In the case of `CCCCCCCCCCCCCCCC(=O)N[C@@H](CCC(=O)N[C@@H](CCC(=O)NCCCC[C@H](NC(=O)[C@H](CC(=O)O)NC(=O)[C@H](CO)NC(=O)[C@@H](NC(=O)[C@H](Cc1ccccc1)NC(=O)[C@@H](NC(=O)CNC(=O)[C@H](CCC(N)=O)NC(=O)C(C)(C)NC(=O)[C@@H](N)Cc1c[nH]cn1)[C@@H](C)O)[C@@H](C)O)C(=O)N[C@@H](CO)C(=O)N[C@@H](CCCCN)C(=O)N[C@@H](Cc1ccc(O)cc1)C(=O)N[C@@H](CC(C)C)C(=O)N[C@@H](CC(=O)O)C(=O)NC(C)(C)C(=O)N[C@@H](CCCNC(=N)N)C(=O)N[C@@H](C)C(=O)N[C@@H](C)C(=O)N[C@@H](CCC(N)=O)C(=O)N[C@@H](CC(=O)O)C(=O)N[C@@H](Cc1ccccc1)C(=O)N[C@H](C(=O)N[C@@H](CCC(N)=O)C(=O)N[C@@H](Cc1c[nH]c2ccccc12)C(=O)N[C@@H](CC(C)C)C(=O)N[C@@H](CCSC)C(=O)N[C@@H](CC(=O)O)C(=O)N[C@H](C(=O)N[C@@H](CCCCN)C(=O)N[C@@H](CCC(N)=O)C(=O)O)[C@@H](C)O)C(C)C)C(=O)O)C(=O)O` [SEQ ID NO: 12] (H-H[Aib]QGTFTSDK([γGlu-γGlu-Palmitoyl])SKYLD[Aib]RAAQDFVQWLMDTKQ-OH; N-terminus assumed), the pEC50 at glucagon receptor was 11.00. In addition, a half-maximal effect at GIP receptor (EC50) was put at 12.8 nM. Besides, in assay [1], the body weight reduction is ~5.3% and the body weight loss is ~29.8%. Further, the pEC50 on human GLP-1R was 11.52.

The values above are taken from US20140221283A1 (Indiana University Research and Technology Corporation, priority 2011, published 2014).
